Laboratory results: ChEMBL document CHEMBL4417631, “Oral peptide inhibitors of interleukin-23 receptor and their use to treat inflammatory bowel diseases” (2017)
Where a SMILES comes first, the peptide text is derived from it.

molecular target: T1, Interleukin-23 receptor (Homo sapiens, UniProt Q5VWK5); test: Inhibition of interleukin-23 binding to human interleukin-23 receptor incubated for 2 hrs by competitive binding ELISA
T1 sequence (Q5VWK5 whole entry): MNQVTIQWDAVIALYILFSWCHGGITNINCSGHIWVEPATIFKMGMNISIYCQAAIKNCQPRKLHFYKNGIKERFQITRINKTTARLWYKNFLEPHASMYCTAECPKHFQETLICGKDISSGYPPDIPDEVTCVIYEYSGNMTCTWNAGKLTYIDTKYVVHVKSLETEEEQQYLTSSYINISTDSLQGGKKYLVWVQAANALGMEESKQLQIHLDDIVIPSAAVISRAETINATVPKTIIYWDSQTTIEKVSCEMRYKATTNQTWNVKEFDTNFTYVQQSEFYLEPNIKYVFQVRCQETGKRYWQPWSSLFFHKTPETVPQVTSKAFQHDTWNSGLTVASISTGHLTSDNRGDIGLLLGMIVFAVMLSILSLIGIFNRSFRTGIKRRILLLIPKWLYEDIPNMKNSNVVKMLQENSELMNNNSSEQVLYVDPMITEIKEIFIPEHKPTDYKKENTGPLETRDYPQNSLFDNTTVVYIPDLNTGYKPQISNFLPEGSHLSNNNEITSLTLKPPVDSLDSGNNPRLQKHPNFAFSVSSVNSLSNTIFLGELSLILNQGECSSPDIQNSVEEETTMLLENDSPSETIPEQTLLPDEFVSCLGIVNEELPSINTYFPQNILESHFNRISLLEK

| IC50 [nM] | Structure (SMILES) |
| --- | --- |
| 500 to 1000 | CC(=O)N[C@@H](CS)C(=O)N[C@@H](C)C(=O)N[C@@H](CC(=O)O)C(=O)N[C@@H](Cc1c[nH]c2ccccc12)C(=O)N[C@H](C(=O)N[C@@H](CS)C(=O)N[C@@H](Cc1ccc(O)cc1)C(=O)N[C@@H](Cc1c[nH]c2ccccc12)C(=O)N[C@@H](Cc1cnc[nH]1)C(=O)N[C@@H](Cc1ccccc1)C(=O)N[C@@H](Cc1cnc[nH]1)C(=O)N[C@@H](CCC(N)=O)C(=O)N[C@@H](CC(C)C)C(=O)N[C@@H](CCCNC(=N)N)C(=O)N[C@@H](CC(=O)O)C(=O)N[C@@H](C)C(N)=O)C(C)C (Ac-CADWVCYWHFHQLRDA-NH2) |
| > 10000 | CC(=O)NC(=O)[C@@H](CCCCNC(=O)COCC(=O)NCCCC[C@@H](NCCC(=O)N[C@@H](CS)C(=O)N[C@@H](C)C(=O)N[C@@H](CC(=O)O)C(=O)N[C@@H](Cc1c[nH]c2ccccc12)C(=O)N[C@H](C(=O)N[C@@H](CS)C(=O)N[C@@H](Cc1ccc(O)cc1)C(=O)N[C@@H](Cc1c[nH]c2ccccc12)C(=O)N[C@@H](Cc1cnc[nH]1)C(=O)N[C@H](C(=O)N[C@@H](Cc1ccccc1)C(=O)NCC(=O)O)[C@@H](C)O)C(C)C)C(=O)NC(C)=O)NCCC(=O)N[C@@H](CS)C(=O)N[C@@H](C)C(=O)N[C@@H](CC(=O)O)C(=O)N[C@@H](Cc1c[nH]c2ccccc12)C(=O)N[C@H](C(=O)N[C@@H](CS)C(=O)N[C@@H](Cc1ccc(O)cc1)C(=O)N[C@@H](Cc1c[nH]c2ccccc12)C(=O)N[C@@H](Cc1cnc[nH]1)C(=O)N[C@H](C(=O)N[C@@H](Cc1ccccc1)C(=O)NCC(=O)O)[C@@H](C)O)C(C)C |
| > 30000 | CC(=O)N[C@@H](CS)C(=O)N[C@@H](CCC(N)=O)C(=O)N[C@H](C(=O)N[C@@H](Cc1c[nH]c2ccccc12)C(=O)N[C@@H](CCC(N)=O)C(=O)N[C@@H](CS)C(=O)N(C)[C@@H](Cc1ccc(O)cc1)C(=O)N[C@@H](Cc1c[nH]c2ccccc12)C(=O)N[C@@H](CCC(C)C)C(=O)N[C@@H](CCC(=O)O)C(=O)N[C@@H](CC(N)=O)C(=O)NCC(N)=O)[C@@H](C)O |
| 500 to 1000 | CC(=O)N[C@@H](CS)C(=O)N[C@@H](C)C(=O)N[C@@H](CC(=O)O)C(=O)N[C@@H](Cc1c[nH]c2ccccc12)C(=O)N[C@H](C(=O)N[C@@H](CS)C(=O)N[C@@H](Cc1ccc(O)cc1)C(=O)N[C@@H](Cc1c[nH]c2ccccc12)C(=O)N[C@@H](Cc1cnc[nH]1)C(=O)N[C@@H](CCC(=O)O)C(=O)N[C@@H](Cc1ccccc1)C(=O)NCC(N)=O)C(C)C |
| 6000 | CC1CSC[C@@H](C(=O)N[C@@H](Cc2ccc(O)cc2)C(=O)N[C@@H](Cc2c[nH]c3ccccc23)C(=O)N[C@@H](CCCNC(=N)N)C(=O)N[C@@H](CCC(=O)O)C(=O)N[C@@H](CC(N)=O)C(=O)NCC(=O)NCCOCC(=O)N[C@H](CCCCN)C(N)=O)NC(=O)[C@H](CCC(N)=O)NC(=O)[C@H](Cc2c[nH]c3ccccc23)NC(=O)[C@H](CC(=O)O)NC(=O)[C@H](CCC(N)=O)NC1=O (stereo partly drawn) |
| > 1000 | CC(=O)N[C@@H](CS)C(=O)N[C@@H](C)C(=O)N[C@@H](CC(=O)O)C(=O)N[C@@H](Cc1c[nH]c2ccccc12)C(=O)N[C@H](C(=O)N[C@@H](CS)C(=O)N[C@@H](Cc1ccc(O)cc1)C(=O)N[C@@H](Cc1c[nH]c2ccccc12)C(=O)N[C@@H](Cc1cnc[nH]1)C(=O)N[C@H](C(=O)N[C@@H](Cc1ccccc1)C(=O)NCC(N)=O)[C@@H](C)O)C(C)C |
| > 1000 | CC(=O)N[C@@H](CS)C(=O)N[C@@H](C)C(=O)N[C@@H](CC(=O)O)C(=O)N[C@@H](Cc1c[nH]c2ccccc12)C(=O)N[C@H](C(=O)N[C@@H](CS)C(=O)N[C@@H](Cc1ccc(O)cc1)C(=O)NC1(C(=O)N[C@@H](Cc2cnc[nH]2)C(=O)N[C@H](C(=O)N[C@@H](Cc2ccccc2)C(=O)NCC(=O)NCCOCC(=O)N[C@H](CCCCN)C(N)=O)[C@@H](C)O)Cc2ccccc2C1)C(C)C |
| 100 to 1000 | CC(=O)NCCCC[C@H](NC(=O)[C@](C)(CCCCN)NC(=O)[C@H](Cc1ccc2ccccc2c1)NC(=O)[C@H](Cc1ccc(N)cc1)NC(=O)[C@@H](NC(=O)[C@H](CCC(N)=O)NC(=O)[C@H](Cc1c[nH]c2ccccc12)NC(=O)[C@@H](NC(=O)[C@H](CCC(N)=O)NC(=O)[C@@H](NC(C)=O)C(C)(C)S)[C@@H](C)O)C(C)(C)S)C(=O)N[C@@H](CC(N)=O)C(=O)NCC(N)=O |
